± gives the uncertainty stated by the source.
Assay: xn = mol fraction of the nth substance listed

O=CN1CCOCC1 + Brc1ccccc1
viscosity [mPa·s], 101 kPa
Conditions	x1 = 0.1046	x1 = 0.2081	x1 = 0.3106	x1 = 0.412	x1 = 0.5124	x1 = 0.6119	x1 = 0.7103	x1 = 0.8078	x1 = 0.9044
303.15 K	1.051 ± 0.033	1.188 ± 0.037	1.392 ± 0.043	1.666 ± 0.051	2.029 ± 0.061	2.502 ± 0.074	3.141 ± 0.092	3.952 ± 0.11	5.052 ± 0.14
308.15 K	1.002 ± 0.032	1.119 ± 0.035	1.297 ± 0.04	1.538 ± 0.047	1.858 ± 0.056	2.274 ± 0.067	2.809 ± 0.082	3.511 ± 0.1	4.419 ± 0.13
313.15 K	0.953 ± 0.031	1.057 ± 0.033	1.22 ± 0.038	1.442 ± 0.044	1.727 ± 0.052	2.105 ± 0.062	2.585 ± 0.076	3.211 ± 0.093	4.012 ± 0.11

C=C(C)C(=O)OCCCC + C1CCCCC1
viscosity [mPa·s], 101 kPa
Conditions	298.15 K	308.15 K
x1 = 0.056	0.866 ± 0.087	0.737 ± 0.074
x1 = 0.1555	0.835 ± 0.084	0.711 ± 0.072
x1 = 0.2562	0.812 ± 0.082	0.692 ± 0.07
x1 = 0.3534	0.797 ± 0.08	0.68 ± 0.068
x1 = 0.4548	0.789 ± 0.079	0.673 ± 0.068
x1 = 0.4924	0.788 ± 0.079	0.673 ± 0.068
x1 = 0.5528	0.788 ± 0.079	0.673 ± 0.068
x1 = 0.6497	0.794 ± 0.08	0.678 ± 0.068
x1 = 0.7645	0.81 ± 0.081	0.692 ± 0.069
x1 = 0.8529	0.83 ± 0.083	0.708 ± 0.071
x1 = 0.9568	0.861 ± 0.086	0.735 ± 0.074

NCc1ccccc1 + C1CCOC1
303.15 K, 101 kPa
Conditions	viscosity [mPa·s]
x1 = 0.0768	0.522 ± 0.011
x1 = 0.1577	0.576 ± 0.012
x1 = 0.2429	0.636 ± 0.014
x1 = 0.333	0.705 ± 0.015
x1 = 0.4282	0.785 ± 0.017
x1 = 0.529	0.876 ± 0.019
x1 = 0.636	0.981 ± 0.021
x1 = 0.7497	1.104 ± 0.024
x1 = 0.8708	1.247 ± 0.027

NCc1ccccc1 + C1COCCO1
303.15 K, 101 kPa
Conditions	viscosity [mPa·s]
x1 = 0.0802	1.116 ± 0.024
x1 = 0.164	1.158 ± 0.024
x1 = 0.2516	1.199 ± 0.025
x1 = 0.3434	1.238 ± 0.026
x1 = 0.4396	1.276 ± 0.027
x1 = 0.5406	1.311 ± 0.028
x1 = 0.6467	1.343 ± 0.028
x1 = 0.7584	1.372 ± 0.029
x1 = 0.8759	1.396 ± 0.029

C=C(C)C(=O)OCCCC + CC#N
viscosity [mPa·s], 101 kPa
Conditions	298.15 K	303.15 K	308.15 K	313.15 K	318.15 K
x2 = 0.0681	0.8436 ± 0.018	0.7784 ± 0.017	0.7223 ± 0.015	0.6777 ± 0.014	0.6423 ± 0.014
x2 = 0.1359	0.8101 ± 0.017	0.7487 ± 0.016	0.6958 ± 0.015	0.6537 ± 0.014	0.6202 ± 0.013
x2 = 0.1976	0.7793 ± 0.017	0.7213 ± 0.015	0.6713 ± 0.014	0.6314 ± 0.013	0.5995 ± 0.013
x2 = 0.2728	0.7411 ± 0.016	0.6872 ± 0.015	0.6407 ± 0.014	0.6035 ± 0.013	0.5735 ± 0.012
x2 = 0.3442	0.7043 ± 0.015	0.6543 ± 0.014	0.6111 ± 0.013	0.5764 ± 0.012	0.5483 ± 0.012
x2 = 0.4143	0.6677 ± 0.014	0.6215 ± 0.013	0.5815 ± 0.012	0.5492 ± 0.012	0.5229 ± 0.011
x2 = 0.4658	0.6405 ± 0.014	0.5971 ± 0.013	0.5594 ± 0.012	0.5289 ± 0.011	0.5039 ± 0.011
x2 = 0.5243	0.6094 ± 0.013	0.5691 ± 0.012	0.534 ± 0.011	0.5055 ± 0.011	0.482 ± 0.01
x2 = 0.5649	0.5876 ± 0.013	0.5495 ± 0.012	0.5162 ± 0.011	0.4891 ± 0.01	0.4665 ± 0.0099
x2 = 0.639	0.5475 ± 0.012	0.5133 ± 0.011	0.4834 ± 0.01	0.4587 ± 0.0097	0.4379 ± 0.0093
x2 = 0.7112	0.508 ± 0.011	0.4776 ± 0.01	0.4508 ± 0.0096	0.4285 ± 0.0091	0.4095 ± 0.0087
x2 = 0.7836	0.468 ± 0.0099	0.4413 ± 0.0094	0.4178 ± 0.0089	0.3978 ± 0.0085	0.3805 ± 0.0081
x2 = 0.8558	0.4277 ± 0.0091	0.4048 ± 0.0086	0.3844 ± 0.0082	0.3668 ± 0.0078	0.3512 ± 0.0075
x2 = 0.928	0.3871 ± 0.0082	0.3679 ± 0.0078	0.3506 ± 0.0075	0.3353 ± 0.0072	0.3214 ± 0.0069

CCC(=O)c1ccccc1 + CC#N
308.15 K, 101 kPa
Conditions	viscosity [mPa·s]
x1 = 0.0418	0.3347 ± 0.013
x1 = 0.0922	0.3774 ± 0.015
x1 = 0.1459	0.4272 ± 0.016
x1 = 0.2084	0.4875 ± 0.018
x1 = 0.2804	0.5679 ± 0.02
x1 = 0.3757	0.6605 ± 0.023
x1 = 0.4796	0.7806 ± 0.026
x1 = 0.6093	0.9478 ± 0.031
x1 = 0.7791	1.188 ± 0.038
x1 = 0.9397	1.426 ± 0.044

OCCO + CC#N
viscosity [mPa·s], 100 kPa
Conditions	x2 = 0.1016	x2 = 0.2004	x2 = 0.3019	x2 = 0.3984	x2 = 0.4901	x2 = 0.6353	x2 = 0.6987	x2 = 0.8061	x2 = 0.8984
293.15 K	13 ± 2.6	8.4 ± 1.7	5.53 ± 1.1	3.48 ± 0.7	2.4 ± 0.48	1.35 ± 0.27	1.06 ± 0.21	0.71 ± 0.14	0.51 ± 0.1
298.15 K	11.2 ± 2.2	7.41 ± 1.5	4.87 ± 0.98	3.19 ± 0.64	2.21 ± 0.44	1.25 ± 0.25	0.98 ± 0.2	0.66 ± 0.13	0.48 ± 0.1
303.15 K	9.25 ± 1.9	6.17 ± 1.2	4.25 ± 0.85	2.85 ± 0.57	2.01 ± 0.4	1.17 ± 0.23	0.93 ± 0.19	0.63 ± 0.13	0.45 ± 0.09

S=C=S + CC(C)=O
viscosity [mPa·s]
Conditions	293.15 K	298.15 K
101 kPa, x1 = 0.035	0.32 ± 0.004	0.3065 ± 0.0035
101 kPa, x1 = 0.107	0.316 ± 0.004	0.3025 ± 0.0035
101 kPa, x1 = 0.167	0.315 ± 0.004	0.3015 ± 0.0035
101 kPa, x1 = 0.202	0.314 ± 0.004	0.301 ± 0.004
101 kPa, x1 = 0.304	0.316 ± 0.004	0.3015 ± 0.0035
101 kPa, x1 = 0.408	0.319 ± 0.004	–
101 kPa, x1 = 0.498	0.324 ± 0.004	0.31 ± 0.004
101 kPa, x1 = 0.633	0.3325 ± 0.0038	0.3185 ± 0.0036
101 kPa, x1 = 0.762	0.343 ± 0.004	–
101 kPa, x1 = 0.89	0.354 ± 0.004	0.3365 ± 0.0038
101.33 kPa, x2 = 0.1384	–	0.3361 ± 0.0084
101.33 kPa, x2 = 0.2716	–	0.3258 ± 0.0082
101.33 kPa, x2 = 0.3443	–	0.3242 ± 0.0081
101.33 kPa, x2 = 0.4624	–	0.3103 ± 0.0078
101.33 kPa, x2 = 0.5524	–	0.3035 ± 0.0076
101.33 kPa, x2 = 0.6431	–	0.3003 ± 0.0075
101.33 kPa, x2 = 0.7358	–	0.2975 ± 0.0075
101.33 kPa, x2 = 0.8389	–	0.2974 ± 0.0075
101.33 kPa, x2 = 0.9171	–	0.2993 ± 0.0075

NCc1ccccc1 + CC(C)CCO
viscosity [mPa·s], 101.33 kPa
Conditions	x1 = 0.0999	x1 = 0.1999	x1 = 0.3	x1 = 0.4	x1 = 0.5	x1 = 0.6	x1 = 0.7	x1 = 0.8	x1 = 0.9
298.15 K	3.425 ± 0.043	3.149 ± 0.04	2.901 ± 0.037	2.684 ± 0.034	2.474 ± 0.031	2.284 ± 0.029	2.103 ± 0.026	1.941 ± 0.024	1.806 ± 0.022
303.15 K	2.914 ± 0.037	2.672 ± 0.034	2.455 ± 0.031	2.259 ± 0.029	2.099 ± 0.026	1.937 ± 0.024	1.803 ± 0.023	1.683 ± 0.021	1.582 ± 0.02
308.15 K	2.536 ± 0.032	2.319 ± 0.029	2.142 ± 0.027	1.979 ± 0.025	1.833 ± 0.023	1.706 ± 0.021	1.602 ± 0.02	1.51 ± 0.019	1.441 ± 0.018
